{"source": "paper PMC6199744", "about": "“Development of Chemical Proteomics for the Folateome and Analysis of the Kinetoplastid Folateome” (ACS Infectious Diseases, 2018)", "system": "L. major lysate proteins", "experiment": "Multitargeted bead mixture chemoproteomics, single concentration competition, proteome-wide", "assay_type": "binding", "note": "Several values for one entry are separate records, joined by “and”; a condition that tells them apart may be missing. Equal entries are not always repeated. Where two headings read alike, the source gives them in different places."}
{"smiles": "NCCCNc1ccc(C(=O)NC(CCC(=O)O)C(=O)O)cc1", "note": "(stereo not drawn) [compound 7]", "values": [{"measurement": "fold change", "value": 0.99}, {"measurement": "fold change relative to vehicle control", "value": "1.03 and 1.04"}, {"measurement": "fold change vs vehicle control", "value": "1.19 and 1.04 and 1.12"}, {"measurement": "protein inhibition, any captured protein (Figure 8)", "setting": "bead mixture, L. major lysate", "value": "no protein inhibition >30%"}, {"measurement": "fold change vs vehicle control", "setting": "protein CLI00016468.1 KINETOPLASTID MEMBRANE PROTEIN-11", "value": 0.73}, {"measurement": "fold change vs vehicle control", "setting": "protein LINJ.03.0240 RIBOSOMAL PROTEIN L38, PUTATIVE", "value": 1.02}, {"measurement": "fold change vs vehicle control", "setting": "protein LINJ.11.0780 40S RIBOSOMAL PROTEIN S21, PUTATIVE", "value": 1.05}, {"measurement": "fold change", "setting": "protein LINJ.11.0960 40S RIBOSOMAL PROTEIN S5, vehicle control = 1", "value": 0.98}, {"measurement": "fold change vs vehicle control", "setting": "protein LINJ.13.0990 […] SUBUNIT 2, PUTATIVE", "value": 1.26}, {"measurement": "fold change vs vehicle control", "setting": "protein LINJ.15.0330 RIBONUCLEOPROTEIN P18, MITOCHONDRIAL PRECURSOR, PUTATIVE", "value": 0.97}, {"measurement": "fold change", "setting": "protein LINJ.19.0090 FIBRILLARIN, PUTATIVE, vehicle control = 1", "value": 1.04}, {"measurement": "fold change relative to vehicle control", "setting": "protein LINJ.23.0860, 3-KETOACYL-COA THIOLASE, PUTATIVE", "value": 1.02}, {"measurement": "fold change relative to vehicle control", "setting": "protein LINJ.24.2300, 60S RIBOSOMAL PROTEIN L12, PUTATIVE", "value": 1.04}, {"measurement": "fold change vs vehicle control", "setting": "protein LINJ.25.2230 SUCCINYL-COA SYNTHETASE ALPHA SUBUNIT, PUTATIVE", "value": 0.97}, {"measurement": "fold change vs vehicle control", "setting": "protein LINJ.26.1630 40S RIBOSOMAL PROTEIN S33, PUTATIVE", "value": 1.04}, {"measurement": "fold change vs vehicle control", "setting": "protein LINJ.28.1100 RIBOSOMAL PROTEIN S20, PUTATIVE", "value": 1.02}, {"measurement": "fold change relative to vehicle control", "setting": "protein LINJ.28.1940, REPLICATION FACTOR A, 51KDA SUBUNIT, PUTATIVE", "value": 1.1}, {"measurement": "fold change", "setting": "protein LINJ.28.2280 DYNEIN LIGHT CHAIN LC6, FLAGELLAR OUTER ARM, PUTATIVE, vehicle control = 1", "value": 0.9}, {"measurement": "fold change", "setting": "protein LINJ.28.2870 PROTEIN PHOSPHATASE 4 CATALYTIC SUBUNIT, PUTATIVE, vehicle control = 1", "value": 0.91}, {"measurement": "fold change relative to vehicle control", "setting": "protein LINJ.31.1600, […] OXIDASE VIII (COX VIII), PUTATIVE", "value": 1.19}, {"measurement": "fold change relative to vehicle control", "setting": "protein LINJ.33.1730, CYCLOPHILIN 4, PUTATIVE", "value": 1.08}, {"measurement": "fold change vs vehicle control", "setting": "protein LINJ.34.0670 PROTEASOME REGULATORY NON-ATP-ASE SUBUNIT 11, PUTATIVE,19S PROTEASOME REGULATORY SUBUNIT", "value": 0.97}, {"measurement": "fold change vs vehicle control", "setting": "protein LINJ.36.0780 PROTEIN KINASE, PUTATIVE,MITOGEN-ACTIVATED PROTEIN KINASE, PUTATIVE", "value": 1.26}, {"measurement": "fold change relative to vehicle control", "setting": "protein LINJ.36.3960, BASIC TRANSCRIPTION FACTOR 3A, PUTATIVE", "value": 1.58}, {"measurement": "fold change relative to vehicle control", "setting": "protein LINJ.36.4080, HY[…], CONSERVED", "value": 1.32}, {"measurement": "fold change", "setting": "protein LINJ.36.4180 HS1VU COMPLEX PROTEOLYTIC SUBUNIT-LIKE, vehicle control = 1", "value": 0.93}, {"measurement": "fold change vs vehicle control", "setting": "protein LINJ.[…] LONG-CHAIN-FATTY-ACID-COA LIGASE, PUTATIVE", "value": 0.9}, {"measurement": "fold change", "setting": "protein LMJF.01.0570 TRIC[…], PUTATIVE, vehicle control = 1", "value": 0.92}, {"measurement": "fold change relative to vehicle control", "setting": "protein LMJF.03.0200, DELTA-1-PYRROLINE-5-CARBOXYLATE DEHYDROGENASE, PUTATIVE", "value": 1.07}, {"measurement": "fold change", "setting": "protein LMJF.03.0230 LONG CHAIN FATTY ACYL COA SYNTHETASE, PUTATIVE, vehicle control = 1", "value": 1}, {"measurement": "fold change", "setting": "protein LMJF.03.0980 […] 2 ALPHA SUBUNIT, PUTATIVE, vehicle control = 1", "value": 1.01}, {"measurement": "fold change vs vehicle control", "setting": "protein LMJF.04.0630 HY[…], CONSERVED", "value": 1.07}, {"measurement": "fold change vs vehicle control", "setting": "protein LMJF.04.1230 actin", "value": 1.04}, {"measurement": "fold change", "setting": "protein LMJF.05.0100 PHOSPHOPROTEIN PHOSPHATASE, PUTATIVE, vehicle control = 1", "value": 0.91}, {"measurement": "fold change", "setting": "protein LMJF.05.0280 PROTEIN TYROSINE PHOSPHATASE, PUTATIVE, vehicle control = 1", "value": 0.99}, {"measurement": "fold change", "setting": "protein LMJF.05.0510 ATPASE ALPHA SUBUNIT, vehicle control = 1", "value": 1.08}, {"measurement": "fold change", "setting": "protein LMJF.05.1040 STOMATIN-LIKE PROTEIN, vehicle control = 1", "value": 0.92}, {"measurement": "fold change", "setting": "protein LMJF.06.0650 LANOSTEROL SYNTHASE, PUTATIVE, vehicle control = 1", "value": 0.95}, {"measurement": "fold change vs vehicle control", "setting": "protein LMJF.07.0700 TOPOISOMERASE-RELATED FUNCTION PROTEIN-LIKE PROTEIN", "value": 1.1}, {"measurement": "fold change", "setting": "protein LMJF.07.1000 RNA BINDING PROTEIN-LIKE PROTEIN, vehicle control = 1", "value": 0.88}, {"measurement": "fold change relative to vehicle control", "setting": "protein LMJF.07.1140, PEPTIDE […] REDUCTASE-LIKE", "value": 1.06}, {"measurement": "fold change", "setting": "protein LMJF.08.0510 RIBOSE-PHOSPHATE PYROPHOSPHOKINASE, PUTATIVE, vehicle control = 1", "value": 0.91}, {"measurement": "fold change vs vehicle control", "setting": "protein LMJF.08.0550 TRANSLATION INITIATION FACTOR-LIKE PROTEIN", "value": 0.9}, {"measurement": "fold change relative to vehicle control", "setting": "protein LMJF.08.1030, cathepsin L-like protease", "value": 1.03}, {"measurement": "fold change vs vehicle control", "setting": "protein LMJF.08.1100 HYPOTHETICAL PROTEIN, CONSERVED", "value": 0.98}, {"measurement": "fold change vs vehicle control", "setting": "protein LMJF.09.1010 HYPOTHETICAL PROTEIN, CONSERVED", "value": 0.75}, {"measurement": "fold change relative to vehicle control", "setting": "protein LMJF.09.1120, MIT[…] BINDING PROTEIN 2,MRP2, GBP25", "value": 1.14}, {"measurement": "fold change vs vehicle control", "setting": "protein LMJF.09.1260 HYPOTHETICAL PROTEIN, CONSERVED", "value": 0.95}, {"measurement": "fold change", "setting": "protein LMJF.10.0210 NUCLEOLAR PROTEIN, PUTATIVE, vehicle control = 1", "value": 1.01}, {"measurement": "fold change vs vehicle control", "setting": "protein LMJF.10.0310 PROTEIN TRANSPORT PROTEIN SEC23, PUTATIVE", "value": 1.31}, {"measurement": "fold change", "setting": "protein LMJF.11.0590 3-[…]-COA C[…] SUBUNIT, PUTATIVE, vehicle control = 1", "value": 1}, {"measurement": "fold change relative to vehicle control", "setting": "protein LMJF.11.0630, AMINOPEPTIDASE, PUTATIVE,METALLO-PEPTIDASE, CLAN MF, FAMILY M17", "value": 0.94}, {"measurement": "fold change vs vehicle control", "setting": "protein LMJF.11.1050 PRETRA[…], ALPHA SUBUNIT, PUTATIVE,SEC61-LIKE (PRETRA[…]) PROTEIN, PUTATIVE", "value": 1.07}, {"measurement": "fold change", "setting": "protein LMJF.11.1160 PROTEIN TRANSPORT PROTEIN SEC31, PUTATIVE, vehicle control = 1", "value": 1.26}, {"measurement": "fold change", "setting": "protein LMJF.12.0030 PROTEASOME BETA-1 SUBUNIT, PUTATIVE, vehicle control = 1", "value": 0.94}, {"measurement": "fold change vs vehicle control", "setting": "protein LMJF.12.0210 […] […]1L8 3, PUTATIVE", "value": 0.95}, {"measurement": "fold change relative to vehicle control", "setting": "protein LMJF.12.0530, GLUCOSE-6-PHOSPHATE ISOMERASE", "value": 1.09}, {"measurement": "fold change", "setting": "protein LMJF.12.0630 ALANINE AMINOTRANSFERASE, vehicle control = 1", "value": 0.93}, {"measurement": "fold change vs vehicle control", "setting": "protein LMJF.13.1230 40S RIBOSOMAL PROTEIN S4, PUTATIVE", "value": 1.05}, {"measurement": "fold change vs vehicle control", "setting": "protein LMJF.14.0310 PROTEASOME ALPHA 3 SUBUNIT, PUTATIVE", "value": 0.96}, {"measurement": "fold change", "setting": "protein LMJF.14.0660 FATTY ACID ELONGASE, PUTATIVE, vehicle control = 1", "value": 1.02}, {"measurement": "fold change", "setting": "protein LMJF.14.0670 FATTY ACID ELONGASE, PUTATIVE, vehicle control = 1", "value": 0.94}, {"measurement": "fold change vs vehicle control", "setting": "protein LMJF.14.0680 FATTY ACID ELONGASE, PUTATIVE", "value": 1.14}, {"measurement": "fold change", "setting": "protein LMJF.14.0990 ADP/ATP MIT[…]-LIKE PROTEIN, vehicle control = 1", "value": 1.25}, {"measurement": "fold change vs vehicle control", "setting": "protein LMJF.14.1160 ENOLASE", "value": 1.02}, {"measurement": "fold change", "setting": "protein LMJF.14.1440 HYPOTHETICAL PROTEIN, CONSERVED (cytoskeleton associated protein, putative), vehicle control = 1", "value": 0.82}]}
